Measured values published in patent US10908171B2, “Additive channels” (Emulate Inc., priority 2016, dated 2021).
Entries after “also recorded” stand apart in the source; their conditions may differ. Counter-ions that a name gives are not always drawn. Positions of bridges follow the written chain, without caps; N, C: chain ends. Non-standard residues stand in square brackets, D forms with d. Residues, ends and D or L forms follow the SMILES beside them. hArg = N=C(N)NCCCC[C@H](N)C(=O)O; Mpa = O=C(O)CCS

How the values were obtained:
[1] = test system: thrombin anti-thrombin complex (TAT); assay: Thrombin anti-thrombin (TAT) ELISA in plasma of chip effluent; type: cell-based, human; conditions: for levels of TAT: plasma from blood flowing out of the chip, vs untreated blood
Procedure: Thrombin converts fibrinogen into fibrin during clot formation, and anti-thrombin plays a role in maintaining homeostasis by inhibiting the effect of thrombin. Formation of TAT in the microdevice confirms that local and intrinsic generation of thrombin, a potent platelet agonist, occurs in the model and that counter regulatory mechanisms for coagulation are retained. Thus, blood sampled from the Vessel-On-Chip was analyzed for thrombin anti-thrombin complex (TAT), an accepted clinical biomarker for procoagulation^48,49. TAT refers to a factor released upon activation of the coagulation cascade and one of the biomarkers associated with thrombotic events occurring in patients affected with deep vein thrombosis (DVT) or Systemic lupus erythematosus (SLE)^45,46. An enzyme-linked immunosorbent assay (ELISA) was used to quantify the thrombin anti-thrombin complex (TAT).
Thrombin-Anti Thrombin (TAT) Measurement via ELISA: Thrombin Anti-Thrombin (TAT) levels were analyzed in plasma from blood flowing out of the chip device by removing a sample from the outflow port. Thus TAT levels were evaluated in sample effluents collected from the outflow port of the chip using the Human TAT ELISA Kit (Siemens Healthineers) according to the user manual.
Blood sampled from the Vessel-On-Chip outflow port was analyzed for thrombin anti-thrombin complex (TAT), a factor released upon activation of the coagulation cascade and one of the biomarkers associated with thrombotic events occurring in patients affected with deep vein thrombosis (DVT) or SLE^45,46. TAT is an accepted clinical biomarker for procoagulation^48,49. An enzyme-linked immunosorbent assay (ELISA) was used to quantify the thrombin anti-thrombin complex (TAT).

[2] = test system: platelets; assay: Vessel-On-Chip platelet coverage / aggregation, fluorescence imaging of CD41-labelled platelets in perfused re-calcified blood; type: cell-based, human; conditions: for platelet coverage: endothelial pre-treatment TNF-α 50 ng/ml 6 hours, or blood with sCollagen 10 μg/ml, vs blood alone; for platelet aggregate formation / platelet coverage: hu5C8 240 μg/ml, sCD40L 10 ng/ml, alone or combined, 60 μl/minute, compared to untreated blood
Procedure: (§1) Briefly, human blood was drawn in citrate buffer and used within 4 hours. Platelets were stained using fluorescently labeled non-blocking antibodies for the platelet surface marker CD41 and low dosages of fluorescent fibrinogen were added in order to visualize fibrin deposition. Blood was re-calcified in order to re-establish the full coagulation potential, then introduced in the biomimetic vessel-on-chip from the main inlet (embodiments of inlets shown in FIG. 18A-1, FIG. 18A-2 and FIG. 19C). The outlet of the chip was connected to a pulling syringe pump with a system of tubing and connectors made of medical grade silicon that excludes any metal components or potential causes of platelet activation (FIG. 5A).
After 14 minutes of perfusion, the flow was interrupted and the chips were immediately imaged via fluorescence microscopy (FIG. 18C and FIG. 19D). In healthy conditions, endothelial cells will provide an antithrombotic surface where blood can flow smoothly, and indeed we detected minimal platelet adhesion or fibrin deposition in our vessel-on-chip after blood perfusion in control conditions, FIG. 18C, Blood.
Experiments with Blood: Blood Samples And Endothelium: Citrated human blood (Research Blood Components, Cambridge, Mass.) was used within 4 hours of a blood draw in order to minimize pre-analytical effects on platelet function. Before every experiment, each one of the endothelialized channels (i.e. microchannels having an endothelial cell layer) was inspected via light microscopy. Samples showing any sign of discontinuity in the endothelium were discarded. […] USA) was at room temperature for 20 minutes.
Platelets: Platelets were labeled with human CD41-PE antibody (10 μL/ml, Invitrogen) directly added to the blood and incubated at room temperature for 5 minutes.
(§2) Adding Blood to a Vessel-On-Chip And Flow Conditions: A medical grade plastic reservoir was mounted on the chip, then 800 μl of the blood sample was pipetted into the reservoir. The chip was perfused with the blood by withdrawing it at a rate of 60 μl/minute using a syringe pump. The citrated blood was re-calcified 2 minutes after the beginning of each experiment by adding 100 μl/ml of a solution containing 100 mM calcium chloride and 75 mM magnesium chloride to the blood to permit calcium- and magnesium-dependent platelet function and coagulation.
(§3) Fluorescence Image analysis: Chips perfused with blood samples were immediately imaged via fluorescence microscopy (Olympus IX83, 10× objective UPLFLN10X2, Orca-Flash 4.0 CMOS Camera). Each chamber was inspected along its entire length and 5 images (about 0.25 cm) were captured from the central area of the chamber. Image processing and quantification was performed with an automatic macro compiled in ImageJ and numerical values corresponding to platelet coverage or fibrin florescence were collected and statistically analyzed in Graphpad Prism V7.
(§4) Platelet Coverage: A percentage of signal coverage (or Platelet coverage) was computed from the binary image as the ratio of bright pixels to the total number of pixels in the image. Image processing and quantification was performed with an automatic macro compiled in ImageJ in order to ensure unbiased signal measurements. Numerical values corresponding to platelet coverage or fibrin fluorescence (signal intensity) were collected and statistically analyzed in Graphpad Prism V7.

[3] = test system: fibrin; assay: Vessel-On-Chip fibrin deposition, fluorescent fibrinogen imaging; type: cell-based, human; conditions: for fibrin signal intensity: endothelial pre-treatment TNF-α 50 ng/ml 6 hours, or blood with sCollagen 10 μg/ml, vs blood alone; for fibrin deposition on the endothelium: hu5C8 240 μg/ml, sCD40L 10 ng/ml, alone or combined, compared to untreated blood
Procedure: as §1, §2
Visualizing Fibrin Deposition: When analyzing the formation of fibrin, 10 μg/ml of fluorescently labeled fibrinogen (Alexa 488, Invitrogen) was also added to the blood. While fluorescent fibrinogen was barely detected as a diffused fluorescence, fibrin deposition on inflamed cells and sparse clots was easily distinguished since fibrin formed filamentous structures produce a signal intensity that is clearly observed above a background threshold.
as §3, §4

[4] = test system: re-calcified blood; assay: On-chip anticoagulation of outflowing blood through the anticoagulant port; design: species or system human; conditions: introduced through the anticoagulant port; vs chips without anticoagulant port
Source text: In order to functionally test the system, re-calcified blood was perfused through the inlet while anticoagulant, e.g. citrate buffer, was introduced online from the port situated next to the outflow port. Thus, blood obtained from the effluent of chips equipped with the anticoagulant port or without anticoagulant port were compared (FIG. 6). From a qualitative point of view the difference was striking.
In order to functionally test the additive channel (i.e. microfluidic chamber(s)) attached to the outflow port of a Vessel-On-Chip, re-calcified blood was perfused through the inlet port while citrate was introduced online from a port situated next to the outflow port, flowing through the additive channel. Thus, blood obtained from the effluent of chips equipped with the anticoagulant port (additive channel) or without anticoagulant port were compared (FIG. 6). From a qualitative point of view the difference was striking.

[5] = test system: ICAM1; assay: ICAM1 immunostaining of endothelium; type: cell-based, human; conditions: TNF-α stimulated vs control
Procedure: ICAM1 is shown with examples identified by white arrows. One example of a DAPI stained nuclei is shown inside of a white circle.
TNF-alpha Stimulation: In some experiment endothelial cells were stimulate with 50 ng/ml of TNF (Sigma) for 6 hours in order to induce vascular inflammation before blood perfusion.

[6] = test system: FcγRIIa; assay: hu5C8-mediated thrombosis on-chip, FcγRIIa dependence (platelet coverage, fibrin deposition, TAT); type: cell-based, human; conditions: with sCD40L, IV.3 1 μg/ml block or IgG2σ variant in place of hu5C8
Source text: Recent studies conducted on humanized mice expressing the human Fcγ receptors (FCGR2A) have shown that this receptor plays a role in thrombosis leading to the IC-mediated toxicity^12,16,21. […] In order to investigate if the IC5c8-induced thrombosis that we observed in our vessel-on-chip system also relies on an Fc-mediated mechanism, we used two different tool molecules: IgG2σ and IV.3 (FIG. 25A). The IgG2σ variant of hu5C8 has an engineered Fc region^48 that eliminates affinity for the FcγRIIa, while the monoclonal antibody IV.3 is a blocking antibody binding to FcγIIa. Briefly, equimolar concentrations of IgG2σ […] hu5c8 were incubated with […] sCD40L for 20 minutes to form ICIgG2σ or IC5c8, respectively.
Some of the blood samples were treated with IV.3 (1 μg/ml) for 10 minutes to block the FcγRIIa, and then incubated for 20 more minutes with IC5c8. Finally, blood alone (control) or blood incubated with IC5c8, ICIgG2σ or IV.3 was perfused through the biomimetic microfluidic-on-chip for about 10 minutes. We tested 15 donors and all the tested conditions described above were tested in duplicates and analyzed as percentage of platelet coverage based on fluorescence microscopic imaging (FIG. 25B). Five of the donors were also tested for fibrin deposition (FIG. 25C). Finally, effluents plasma obtained from a total of 7 of the donors (including the 5 mentioned before) were used to assess TAT via ELISA (FIG. 25D). […]
Blood from several human donors were aliquoted into groups for the following treatments: controls (PBS), sCD40L, combined hu5C8/sCD40L, combined hu5C8 (IgG2σ/sCD40L combined, and combined hu5C8/sCD40L/IV.3. Each condition was tested with a minimum of 3 donors to a maximum of 15 donors, and all conditions were tested in duplicates and analyzed for platelet coverage (FIG. 25B), fibrin deposition (FIG. 25C), or increased formation of TAT measured in the eluates (FIG. 25D). Platelet coverage and fibrin deposition following treatment were normalized and reported as fold-increase over untreated control values for each donor.

[7] = lupus and/or Crohn's disease; cited from earlier work
[8] = Eptifibatide 2 μg/ml, endothelium inflamed with TNF-α, n=4

Molecule: N=C(N)NCCCC[C@@H]1NC(=O)CCSSC[C@@H](C(N)=O)NC(=O)[C@@H]2CCCN2C(=O)[C@H](Cc2c[nH]c3ccccc23)NC(=O)[C@H](CC(=O)O)NC(=O)CNC1=O [Eptifibatide] ([Mpa][hArg]GDWPC-NH2; disulfide 1-7)
- TAT increment associated with TNF-α-induced inflammation ([1]; Eptifibatide treatment): did not inhibit
- TAT increment due to sCollagen treatment ([1]; Eptifibatide treatment): entirely suppressed
- platelet aggregation [2, 8]: significantly inhibited
- inhibitory effect on platelet aggregation and fibrin clot formation ([2]; Eptifibatide 2 μg/ml, following treatment with sCollagen, n=4): comparatively modest
- platelet adhesion (image analysis) ([2]; Eptifibatide 2 μg/ml, samples treated with TNF-α, n=4): completely inhibited
- platelet coverage in stimulated, pro-thrombotic conditions ([2]; FIG. 18E-1, TNF-α or sCollagen with Eptifibatide, n=4 donors): suppressed
- fibrin clot formation [3, 8]: significantly inhibited
- fibrin signal (image analysis) ([3]; Eptifibatide 2 μg/ml, samples treated with TNF-α): a significant amount of fibrin signal was still detectable
- fibrin deposition in stimulated, pro-thrombotic conditions ([3]; FIG. 18E-2, TNF-α or sCollagen with Eptifibatide, n=4 donors): suppressed

Molecule: O=C(O)CC(O)(CC(=O)O)C(=O)O [sodium citrate]
- state of blood collected from the effluent [4]: soluble (not clotted) blood

Molecule: TNF-α
- levels of TAT [1]: significantly increased; also recorded: elevated levels of TAT
- platelet coverage [2]: increased areas of platelet coverage
- expression of ICAM1 in the endothelium [5]: increased expression; also recorded: higher
- fibrin signal intensity [3]: increased

Molecule: hu5C8 (IgG2σ): IgG2σ variant of hu5C8 with an engineered Fc region that eliminates affinity for FcγRIIa
- hu5C8-mediated thrombosis on-chip (platelet coverage, fibrin deposition, TAT) [6]: did not show signs of thrombosis in any of the endpoints
- hu5C8-mediated thrombosis on-chip (platelet coverage, fibrin deposition, TAT) ([6]; listed as IgG2σ): suppressed
- hu5C8-mediated thrombosis on-chip (platelet coverage, fibrin deposition, TAT) ([6]; listed as hu5C8-IgG2σ): not detected

Molecule: hu5C8: humanized monoclonal IgG1 antibody against CD40L, alternatively named anti-CD154
- thromboembolism and cardiovascular events during clinical trials [7]: multiple incidents of thromboembolism and cardiovascular events
- platelet aggregate formation / platelet coverage [2]: no significant treatment-related effects
- fibrin deposition on the endothelium [3]: no significant treatment-related effects

Molecule: sCollagen: soluble collagen (Soluble Calf Skin, Type I), a standard platelet activator
- levels of TAT [1]: minimally increased; also recorded: elevated levels of TAT
- platelet coverage [2]: increased areas of platelet coverage
- fibrin signal intensity [3]: increased

B1: sCD40L: soluble CD40 ligand (CD154); recombinant human sCD40 Ligand (protein, UniProt P29965 47-261, looked up)
extracellular domain: HRRLDKIEDERNLHEDFVFMKTIQRCNTGERSLSLLNCEEIKSQFEGFVKDIMLNKEETKKENSFEMQKGDQNPQIAAHVISEASSKTTSVLQWAEKGYYTMSNNLVTLENGKQLTVKRQGLYYIYAQVTFCSNREASSQAPFIASLCLKSPGRFERILLRAANTHSSAKPCGQQSIHLGGVFELQPGASVFVNVTDPSQVSHGTGFTSFGLLKL
modifications: extracellular domain
- increase in platelet coverage in some donors ([2]; fold-increase over untreated control): about 2 fold
- platelet aggregate formation / platelet coverage [2]: no significant treatment-related effects; also recorded: not statistically significant
- fibrin deposition on the endothelium [3]: no significant treatment-related effects
